# Measured values from patent US12171748B2, “Nitroimidazole formulations” (priority 2018, dated 2024).
# Counter-ions that a name gives are not always drawn.
# Legend:
# [1] = cited from earlier work; for solubility in hot/boiling water: hot or boiling water; for solubility in hot/boiling ethanol: hot or boiling ethanol
# [2] = system: 6 strains of C. difficile; test: Checkerboard assay for antibiotic combinations; format: cell-based, Clostridium difficile; design: unit not given here
# Procedure: The three combinations below were tested vs. 6 strains of C. difficile following the experimental protocols and synergy calculations set out in Magi et al. 2015. • Berberine+Metronidazole • Berberine+Vancomycin • Metronidazole+Vancomycin
# In accordance with Magi et al. 2015, synergy is calculated using the equation below: ΣFIC=FICA+FICB=MICA (combine)/MICA (alone)+MICB (combine)/MICB (alone)
# When ΣFIC≤0.5, synergy is observed.
# [3] = system: ribotype 027 C. difficile strain (M7404); test: In vivo mouse trial; design: species or system C57BL6/J mice
# Procedure: Groups of five, six week old, male, C57BL6/J mice were pre-treated with an antibiotic cocktail in the drinking water containing kanamycin (0.4 mg/ml), gentamicin (0.035 mg/ml), colistin (850 U/ml), metronidazole (0.215 mg/ml), vancomycin (0.045 mg/ml) and cefaclor (0.3 mg/ml) for 7 days, followed by three days of cefaclor alone. These antibiotics disrupt the resident microbiota and induce susceptibility to infection with Clostridium difficile. On the day of infection, antibiotic pre-treatment was ceased and mice were switched to plain drinking water prior to infection with a ribotype 027 C. difficile strain (M7404) at a dose of 10^5 spores/mouse by oral gavage. Eight hours post-infection, mice were orally administered 100 ul of the respective treatments, followed by the immediate addition of the treatment to the drinking water. The treatments were replenished fresh daily. The mice were monitored twice daily for signs of infection and faecal samples were analysed by microbiological techniques for the presence of C. difficile spores. Mice were humanely killed when they reached ethical endpoints, which include 10% acute weight loss (in the first 24 hours) or 15% chronic weight loss.
# [4] = system: six strains of C. difficile; test: MIC/MBC of compounds against six strains of C. difficile; format: cell-based, Clostridium difficile; details: vs. the six strains
# Procedure: Eleven natural compounds, metronidazole and a positive control, vancomycin, were tested against six strains of C. difficile as shown in Table 4. […] The eleven natural compounds, or combinations, tested were: • 1. […] Matrine • 6. […] Andrographolide • 8. […] The natural compounds, metronidazole and vancomycin were obtained from commercial sources, e.g. Sigma-Aldrich.
# [5] = cited from earlier work
# [6] = single agent 50 mg/kg, oral and drinking water, infected mice
smiles,measurement,setting,value
COC(=O)C1=CCCN(C)C1 [arecoline hydrobromide],solubility in ethanol,[1],diffluent
same,solubility in water,[1],diffluent
COc1cc2c(cc1OC)-c1cc3ccc(OC)c(OC)c3c[n+]1CC2 [Palmatine chloride],solubility in ethanol,[1],slightly soluble
same,solubility in hot/boiling water,[1],soluble
same,solubility in water,[1],sparingly soluble
COc1ccc2cc3[n+](cc2c1OC)CCc1cc2c(cc1-3)OCO2 [Berb],MICBerb (alone),[2]; Replicate 1,1024
same,MICBerb (combine),"[2]; Replicate 1, pair 128, 0.5",128
same,MICBerb (alone),[2]; Replicate 2,512
same,MICBerb (combine),"[2]; Replicate 2, pair 128, 0.5",128
same,survival time of mice,[3]; either 25 mg/kg or 50 mg/kg,did not increase the survival time
same,survival D0,[3]; single agent 25 mg/kg,100%
same,survival D1,[3]; single agent 25 mg/kg,0%
same,survival D1½,[3]; single agent 25 mg/kg,0%
same,survival D1¾,[3]; single agent 25 mg/kg,0%
same,survival D2,[3]; single agent 25 mg/kg,0%
same,survival D3,[3]; single agent 25 mg/kg,0%
same,survival D4,[3]; single agent 25 mg/kg,0%
same,survival D1,[3]; single agent 50 mg/kg,20%
same,survival D1½,[3]; single agent 50 mg/kg,0%
same,survival D1¾,[3]; single agent 50 mg/kg,0%
same,survival D2,[3]; single agent 50 mg/kg,0%
same,survival D3,[3]; single agent 50 mg/kg,0%
same,survival D4,[3]; single agent 50 mg/kg,0%
same,survival D0,[3]; [6],100%
COC(=O)C1=CCCN(C)C1 [Arecoline],solubility in ethanol,[1],produces a solution
same,solubility in water,[1],produces a solution
C=C1CC[C@@H]2[C@](C)(CO)[C@H](O)CC[C@@]2(C)[C@@H]1C/C=C1/C(=O)OC[C@H]1O [Andrographolide],solubility in ethanol at ambient temperature,[1]; ethanol at ambient temperature,poorly soluble
same,solubility in hot/boiling ethanol,[1],soluble
same,solubility in water,[1],almost insoluble
CN[C@H](CC(C)C)C(=O)N[C@H]1C(=O)N[C@@H](CC(N)=O)C(=O)N[C@H]2C(=O)N[C@H]3C(=O)N[C@H](C(=O)N[C@H](C(=O)O)c4cc(O)cc(O)c4-c4cc3ccc4O)[C@H](O)c3ccc(c(Cl)c3)Oc3cc2cc(c3O[C@@H]2O[C@H](CO)[C@@H](O)[C@H](O)[C@H]2O[C@H]2C[C@](C)(N)[C@H](O)[C@H](C)O2)Oc2ccc(cc2Cl)[C@H]1O [Vancomycin],MBC range,[4],≥ 1 µg/mL
"Cc1ncc([N+](=O)[O-])n1CCO [Metronidazole, 2-methyl-5-nitroimidazole-1-ethanol]",MICMet (alone),[2]; Replicate 1,1
same,MICMet (combine),"[2]; Replicate 1, pair 128, 0.5",0.5
same,MICMet (combine),"[2]; Replicate 1, pair 256, 0.25",0.25
same,MICMet (combine),"[2]; Replicate 1, pair 256, 0.5",0.5
same,MICMet (alone),[2]; Replicate 2,2
same,MICMet (combine),"[2]; Replicate 2, pair 128, 0.5",0.5
same,MICMet (combine),"[2]; Replicate 2, pair 256, 0.25",0.25
same,MICMet (combine),"[2]; Replicate 2, pair 256, 0.5",0.5
same,mice survived to the end of the experiment (day 4),[3]; Metronidazole (50 mg/kg) group,1/5
same,survival compared to untreated mice,[3]; either 25 mg/kg or 50 mg/kg,no statistical difference in survival
same,survival D0,[3]; single agent 25 mg/kg,100%
same,survival D1,[3]; single agent 25 mg/kg,60%
same,survival D1½,[3]; single agent 25 mg/kg,20%
same,survival D1¾,[3]; single agent 25 mg/kg,20%
same,survival D2,[3]; single agent 25 mg/kg,0%
same,survival D3,[3]; single agent 25 mg/kg,0%
same,survival D4,[3]; single agent 25 mg/kg,0%
same,survival D1,[3]; single agent 50 mg/kg,100%
same,survival D1½,[3]; single agent 50 mg/kg,100%
same,survival D1¾,[3]; single agent 50 mg/kg,100%
same,survival D2,[3]; single agent 50 mg/kg,20%
same,survival D3,[3]; single agent 50 mg/kg,20%
same,survival D4,[3]; single agent 50 mg/kg,20%
same,survival D0,[3]; [6],100%
O=C1C=CC2(CCC23C=CC(=O)O3)O1 (stereo not shown) [Anemonin],solubility in cold water,[1]; cold water,slightly soluble
same,solubility in hot/boiling ethanol,[1],soluble
same,solubility in hot/boiling water,[1],soluble
O=C(O)[C@H]1O[C@@H](Oc2cc3oc(-c4ccccc4)cc(=O)c3c(O)c2O)[C@H](O)[C@@H](O)[C@@H]1O [Baicalin],stability in alkaline environment,[5],unstable
same,"solubility in N,N-dimethylformamide","[1]; N,N-dimethylformamide",diffluent
same,solubility in alkaline solution,"[1]; alkaline solution, such as sodium bicarbonate, sodium carbonate, sodium hydroxide",soluble
same,solubility in water,[1],almost insoluble
